Key:
DU-145 = assay: Cytotoxicity against human DU145 cells after 48 hrs by sulforhodamine B assay; type: functional; details: DU-145, 48 h
HCT-116 = assay: Cytotoxicity against human HCT116 cells after 48 hrs by sulforhodamine B assay; type: functional; details: HCT-116, 48 h
U-251 = assay: Cytotoxicity against human U251 cells after 48 hrs by sulforhodamine B assay; type: functional; details: U-251, 48 h
Mus musculus = assay: Toxicity in athymic nude mouse assessed as survival at 400 mg/kg, ip measured after 2 weeks; type: organism-based; set-up: dose 400 mg/kg, route intraperitoneal; details: in vivo, 336 h
HOP-62 = assay: Cytotoxicity against human HOP62 cells after 48 hrs by sulforhodamine B assay; type: functional; details: HOP-62, 48 h
RXF 393 = assay: Cytotoxicity against human RXF393 cells after 48 hrs by sulforhodamine B assay; type: functional; details: RXF 393, 48 h
UACC-62 = assay: Cytotoxicity against human UACC62 cells after 48 hrs by sulforhodamine B assay; type: functional; details: UACC-62, 48 h
CAKI-1 = assay: Cytotoxicity against human CAKI-1 cells after 48 hrs by sulforhodamine B assay; type: functional; details: CAKI-1, 48 h
LOX IMVI = assay: Cytotoxicity against human LOXIMVI cells after 48 hrs by sulforhodamine B assay; type: functional
HL-60(TB) = assay: Cytotoxicity against human HL-60(TB) cells after 48 hrs by sulforhodamine B assay; type: functional; details: HL-60, 48 h
HCT-15 = assay: Cytotoxicity against human HCT15 cells after 48 hrs by sulforhodamine B assay; type: functional; details: HCT-15, 48 h
OVCAR-3 = assay: Cytotoxicity against human OVCAR3 cells after 48 hrs by sulforhodamine B assay; type: functional; details: OVCAR-3, 48 h
PC-3 = assay: Cytotoxicity against human PC3 cells after 48 hrs by sulforhodamine B assay; type: functional; details: PC-3, 48 h
SF-295 = assay: Cytotoxicity against human SF295 cells after 48 hrs by sulforhodamine B assay; type: functional; details: SF-295, 48 h
[1] = Cytotoxicity against human EKVX cells after 48 hrs by sulforhodamine B assay; type: functional
MOLT-4 = assay: Cytotoxicity against human MOLT4 cells after 48 hrs by sulforhodamine B assay; type: functional; details: MOLT-4, 48 h
M14 = assay: Cytotoxicity against human M14 cells after 48 hrs by sulforhodamine B assay; type: functional; details: M14, 48 h
SF-268 = assay: Cytotoxicity against human SF268 cells after 48 hrs by sulforhodamine B assay; type: functional; details: SF-268, 48 h
HOP-92 = assay: Cytotoxicity against human HOP92 cells after 48 hrs by sulforhodamine B assay; type: functional; details: HOP-92, 48 h
T47D = assay: Cytotoxicity against human T47D cells after 48 hrs by sulforhodamine B assay; type: functional
NCI-H322M = assay: Cytotoxicity against human NCI-H322M cells after 48 hrs by sulforhodamine B assay; type: functional
NCI/ADR-RES = assay: Cytotoxicity against human NCI/ADR-RES cells after 48 hrs by sulforhodamine B assay; type: functional
CCRF-CEM = assay: Cytotoxicity against human CCRF-CEM cells after 48 hrs by sulforhodamine B assay; type: functional
ACHN = assay: Cytotoxicity against human ACHN cells after 48 hrs by sulforhodamine B assay; type: functional
IGROV-1 = assay: Cytotoxicity against human IGROV1 cells after 48 hrs by sulforhodamine B assay; type: functional; details: IGROV-1, 48 h
NCI-H460 = assay: Cytotoxicity against human NCI-H460 cells after 48 hrs by sulforhodamine B assay; type: functional; details: NCI-H460, 48 h
OVCAR-8 = assay: Cytotoxicity against human OVCAR8 cells after 48 hrs by sulforhodamine B assay; type: functional; details: OVCAR-8, 48 h
KM12 = assay: Cytotoxicity against human KM12 cells after 48 hrs by sulforhodamine B assay; type: functional; details: KM12, 48 h
OVCAR-4 = assay: Cytotoxicity against human OVCAR4 cells after 48 hrs by sulforhodamine B assay; type: functional; details: OVCAR-4, 48 h
SR = assay: Cytotoxicity against human SR cells after 48 hrs by sulforhodamine B assay; type: functional
TK-10 = assay: Cytotoxicity against human TK10 cells after 48 hrs by sulforhodamine B assay; type: functional; details: TK-10, 48 h
BT-549 = assay: Cytotoxicity against human BT549 cells after 48 hrs by sulforhodamine B assay; type: functional; details: BT-549, 48 h
SNB-75 = assay: Cytotoxicity against human SNB75 cells after 48 hrs by sulforhodamine B assay; type: functional; details: SNB-75, 48 h
RPMI-8226 = assay: Cytotoxicity against human RPMI8226 cells after 48 hrs by sulforhodamine B assay; type: functional; details: RPMI-8226, 48 h

Structure (SMILES)	GI50 (DU-145)	GI50 (HCT-116)	GI50 (U-251)	GI50 (RXF 393)	GI50 (UACC-62)	GI50 (CAKI-1)	GI50 (LOX IMVI)	GI50 (HL-60(TB))	GI50 (HCT-15)	GI50 (OVCAR-3)	GI50 (PC-3)	GI50 (SF-295)	GI50 [1]	GI50 (M14)	GI50 (SF-268)	GI50 (HOP-92)	GI50 (T47D)	GI50 (NCI-H322M)	GI50 (NCI/ADR-RES)	GI50 (CCRF-CEM)	other results
CCOc1cccc(/C=N/NC(=O)c2ccccc2Nc2ccnc(C(F)(F)F)c2)c1O	794 nM	316 nM	398 nM	12600 nM	501 nM	251 nM	200 nM	251 nM	251 nM	316 nM	200 nM	501 nM	251 nM	631 nM	794 nM	158 nM	794 nM	398 nM	631 nM	251 nM	Activity (Mus musculus): Non-toxic; GI50 (HOP-62): 501 nM; GI50 (MOLT-4): 126 nM; GI50 (ACHN): 316 nM; GI50 (IGROV-1): 39.8 nM; GI50 (NCI-H460): 251 nM; GI50 (OVCAR-8): 501 nM; GI50 (KM12): 501 nM; GI50 (OVCAR-4): 251 nM; GI50 (SR): 63.1 nM; GI50 (TK-10): 631 nM; GI50 (BT-549): 398 nM; GI50 (SNB-75): 398 nM; GI50 (RPMI-8226): 251 nM
CCOc1cccc(/C=N/NC(=O)c2ccc(Nc3ccnc(C(F)(F)F)c3)cc2)c1O	3980 nM	398 nM	1580 nM	398 nM	794 nM	631 nM	631 nM	1260 nM	631 nM	316 nM	398 nM	1260 nM	1000 nM	1260 nM	1260 nM	631 nM	1580 nM	1260 nM	3160 nM	501 nM	GI50 (HOP-62): 1260 nM; GI50 (MOLT-4): 251 nM; GI50 (ACHN): 1000 nM; GI50 (IGROV-1): 501 nM; GI50 (NCI-H460): 501 nM; GI50 (OVCAR-8): 631 nM; GI50 (KM12): 1580 nM; GI50 (OVCAR-4): 794 nM; GI50 (SR): 251 nM; GI50 (TK-10): 2510 nM; GI50 (BT-549): 1580 nM; GI50 (SNB-75): 631 nM; GI50 (RPMI-8226): 398 nM
O=C(N/N=C/c1ccc(O)cc1O)c1cccc(Nc2ccnc(C(F)(F)F)c2)c1	1580 nM	501 nM	794 nM	1260 nM	398 nM	3160 nM	501 nM	501 nM	3160 nM	316 nM	1260 nM	2000 nM	1000 nM	631 nM	631 nM	1580 nM	501 nM	316 nM	3980 nM	398 nM	GI50 (HOP-62): 501 nM; GI50 (MOLT-4): 631 nM; GI50 (ACHN): 2000 nM; GI50 (IGROV-1): 1260 nM; GI50 (NCI-H460): 3160 nM; GI50 (OVCAR-8): 631 nM; GI50 (KM12): 2510 nM; GI50 (OVCAR-4): 501 nM; GI50 (SR): 398 nM; GI50 (TK-10): 2510 nM; GI50 (BT-549): 631 nM; GI50 (SNB-75): 6310 nM; GI50 (RPMI-8226): 3980 nM
O=C(N/N=C/c1cc(Cl)ccc1O)c1ccccc1Nc1ccnc(C(F)(F)F)c1	316 nM	200 nM	316 nM	398 nM	398 nM	398 nM	251 nM	316 nM	158 nM	501 nM	631 nM	398 nM	200 nM	316 nM	251 nM	501 nM	794 nM	398 nM	398 nM	79.4 nM	GI50 (HOP-62): 251 nM; GI50 (MOLT-4): 200 nM; GI50 (ACHN): 316 nM; GI50 (IGROV-1): 316 nM; GI50 (NCI-H460): 316 nM; GI50 (OVCAR-8): 631 nM; GI50 (KM12): 631 nM; GI50 (OVCAR-4): 251 nM; GI50 (SR): 316 nM; GI50 (TK-10): 501 nM; GI50 (BT-549): 794 nM; GI50 (SNB-75): 316 nM; GI50 (RPMI-8226): 158 nM
CCOc1cccc(/C=N/NC(=O)c2cccc(Nc3ccnc(C(F)(F)F)c3)c2)c1O	631 nM	398 nM	1260 nM	1000 nM	631 nM	1000 nM	631 nM	251 nM	2000 nM	200 nM	1000 nM	2000 nM	794 nM	1260 nM	631 nM	3160 nM	631 nM	631 nM	3160 nM	251 nM	GI50 (HOP-62): 794 nM; GI50 (MOLT-4): 316 nM; GI50 (ACHN): 1000 nM; GI50 (IGROV-1): 794 nM; GI50 (NCI-H460): 1000 nM; GI50 (OVCAR-8): 794 nM; GI50 (KM12): 1260 nM; GI50 (OVCAR-4): 631 nM; GI50 (SR): 158 nM; GI50 (TK-10): 1260 nM; GI50 (BT-549): 1580 nM; GI50 (SNB-75): 7940 nM; GI50 (RPMI-8226): 2000 nM
CCOc1cccc(/C=N/NC(=O)Cc2ccc(Nc3ccnc(C(F)(F)F)c3)cc2)c1O	2000 nM	1260 nM	1580 nM	3160 nM	1580 nM	2510 nM	1580 nM	1000 nM	1000 nM	398 nM	2000 nM	3980 nM	3980 nM	2000 nM	1260 nM	2000 nM	2510 nM	2510 nM	3980 nM	316 nM	GI50 (HOP-62): 2510 nM; GI50 (MOLT-4): 501 nM; GI50 (ACHN): 1580 nM; GI50 (IGROV-1): 2510 nM; GI50 (NCI-H460): 1580 nM; GI50 (OVCAR-8): 3160 nM; GI50 (KM12): 3980 nM; GI50 (OVCAR-4): 794 nM; GI50 (SR): 316 nM; GI50 (TK-10): 3980 nM; GI50 (BT-549): 2510 nM; GI50 (SNB-75): 12600 nM; GI50 (RPMI-8226): 501 nM
O=C(N/N=C/c1ccc(O)cc1O)c1ccc(Nc2ccnc(C(F)(F)F)c2)cc1	20000 nM	39800 nM	63.1 nM	12600 nM	50.1 nM	50.1 nM	2510 nM	12600 nM	> 100000 nM	25.1 nM	20000 nM	10 nM	6310 nM	> 100000 nM	39.8 nM	15800 nM	79.4 nM	19.9 nM	> 100000 nM	31.6 nM	GI50 (ACHN): 31600 nM; GI50 (IGROV-1): 15800 nM; GI50 (NCI-H460): > 100000 nM; GI50 (OVCAR-8): 3160 nM; GI50 (KM12): > 100000 nM; GI50 (OVCAR-4): 39.8 nM; GI50 (SR): > 100000 nM; GI50 (TK-10): 50.1 nM; GI50 (BT-549): 10 nM; GI50 (SNB-75): 3980 nM; GI50 (RPMI-8226): > 100000 nM
O=C(Cc1ccc(Nc2ccnc(C(F)(F)F)c2)cc1)N/N=C/c1ccccc1O	5010 nM	2000 nM	2000 nM	1580 nM	2000 nM	1000 nM	1000 nM	2510 nM	631 nM	794 nM	794 nM	2510 nM	3160 nM	2000 nM	2510 nM	2510 nM	3980 nM	2510 nM	3160 nM	1260 nM	GI50 (HOP-62): 2510 nM; GI50 (MOLT-4): 1000 nM; GI50 (ACHN): 1580 nM; GI50 (IGROV-1): 794 nM; GI50 (NCI-H460): 794 nM; GI50 (OVCAR-8): 2510 nM; GI50 (KM12): 2000 nM; GI50 (OVCAR-4): 3160 nM; GI50 (SR): 316 nM; GI50 (TK-10): 7940 nM; GI50 (BT-549): 2510 nM; GI50 (SNB-75): 2000 nM; GI50 (RPMI-8226): 1000 nM

— ChEMBL document CHEMBL2440080, “Synthesis and biological evaluation of novel acylhydrazone derivatives as potential antitumor agents” (Bioorg Med Chem, 2013)
